Legend:
[1] = system: human LDL receptor gene promoter coupled to firefly luciferase reporter gene in Hep-G2 cell line; assay: In vitro determination of LDL receptor induction using the luciferase assay; assay type: cell-based; conditions: luminescence, DMSO control=100%
Description: 1) In Vitro Determination of LDL Receptor Induction Using the Luciferase Assay
LDL-receptor induction is determined using the luciferase assay as follows. A regulatory DNA fragment (4 kb) of the human LDL receptor gene containing the complete promoter region is coupled to the firefly luciferase reporter gene and stably transfixed into a Hep-G2 cell line. Cells from this line were seeded out on collagen-coated 96-well plates in MEM (minimum essential medium). After 24 hours in culture, the test substances, dissolved in DMSO, were added in final concentrations of 10 nM to 10 μM (final DMSO concentration=2%). The substances were incubated for 12-18 hours overnight (4 wells/conc. in each case), then D-luciferin was added as substrate for the luciferase, and the luminescence was measured. The measured luminescence as a percentage of the control (control=100%) incubated only with DMSO indicates the extent of the relative LDL receptor induction (Table 2).
Further details of the method are described in Current Protocols in Molecular Biology, F. M. Ausubel, R. Brent, R. E. Kingston, D. D. Moore, J. G. Seidman, J. A. Smith, and K. Struhl, eds., J. Wiley and Sons Inc., U.S.A.

[2] = system: hyperlipemic hamsters (plasma lipid level); assay: In vivo reduction in LDL cholesterol / plasma lipid level in hyperlipemic hamsters; design: species or system Syrian hamster; conditions: vs placebo-treated control
From the text: In Vivo Determination of Reduction in LDL Cholesterol in the Hamster; Cholesterol-lowering Effect of LDL Receptor Inducers in Hyperlipemic Hamsters
In this animal experiment, the effect of LDL receptor inducers after bolus adiminstration to hamsters on a lipid-rich diet was investigated.
The experimental animals used were male Syrian hamsters (Charles River) with an average body weight of 100 to 120 g at the start of adaption. The animals were divided into groups (n=6) on the basis of the body weight. Severe hyperlipidemia was induced by feeding with a diet supplemented with 15% butter and 3% cholesterol. The treatment started after preliminary feeding for 2 weeks. The test substances were administered orally by gavage once a day over a period of 10 days. The plasma lipid level was analyzed after 10 days.

[3] = 20 mg/kg p.o. once a day for ten days
[4] = 40 mg/kg p.o. once a day for ten days

SMILES | LDL receptor induction (% of control) ([1]; 1.5 μM) | LDL receptor induction (% of control) ([1]; 4 μM) | LDL receptor induction (% of control) ([1]; 0.15 μM) | further results
CN1CCN(c2cc(NCc3ccccc3)c(S(=O)(=O)NC3CCCCC3)cc2S(=O)(=O)NC2CCCCC2)CC1 [Example 2] | 155% | 227% |  | 
CN1CCN(c2cc(N3CCN(C)CC3)c(S(=O)(=O)N(C)Cc3ccccc3)cc2S(=O)(=O)N(C)Cc2ccccc2)CC1 [Example 3] | 414% |  | 184% | 
CN1CCN(c2cc(NCc3ccccc3)c(S(=O)(=O)N3CCCC3)cc2S(=O)(=O)N2CCCC2)CC1 [Example 5] |  | 240% (4 μM) |  | 
CN1CCN(c2cc(N3CCN(C)CC3)c(S(=O)(=O)N3CCCCC3)cc2S(=O)(=O)N2CCCCC2)CC1 [Example 8] |  | 190% (4 μM) |  | 
CN1CCN(c2cc(NCc3ccccc3)c(S(=O)(=O)N(C)c3ccccc3)cc2S(=O)(=O)N(C)c2ccccc2)CC1 [Example 9] | 402% |  | 244% | 
CN1CCN(c2cc(NCc3ccccn3)c(S(=O)(=O)N(C)c3ccccc3)cc2S(=O)(=O)N(C)c2ccccc2)CC1 [Example 10] |  | 270% | 144% | 
CC(C)CNS(=O)(=O)c1cc(S(=O)(=O)NCC(C)C)c(N2CCN(C)CC2)cc1NCc1ccccc1 [Example 12] | 244% (1.5 μM) |  |  | 
CN1CCN(c2cc(NCCCc3ccccc3)c(S(=O)(=O)N3CCOCC3)cc2S(=O)(=O)N2CCOCC2)CC1 [Example 15] | 243% |  | 137% | 
CCN(CC)S(=O)(=O)c1cc(S(=O)(=O)N(CC)CC)c(N2CCN(C)CC2)cc1NCc1ccccc1 [Example 16] | 214% (1.5 μM) |  |  | 
CN1CCN(c2cc(NCCCc3ccccc3)c(S(=O)(=O)N(C)c3ccccc3)cc2S(=O)(=O)N(C)c2ccccc2)CC1 [Example 25] | 189% |  | 168% | 
CN1CCN(c2cc(NCCCc3ccccc3)c(S(=O)(=O)N3CCCC3)cc2S(=O)(=O)N2CCCC2)CC1 [Example 26] | 206% |  | 146% | 
CN(c1ccccc1)S(=O)(=O)c1cc(S(=O)(=O)N(C)c2ccccc2)c(N2CCNCC2)cc1NCc1ccccn1 [Example 46] | 223% |  | 152% | 
CCN(CCN(C)C)S(=O)(=O)c1cc(S(=O)(=O)N(CC)CCN(C)C)c(N2CCN(C)CC2)cc1N(C)Cc1ccccc1 [Example 61] |  | 190% (4 μM) |  | 
CCN(CCN(C)C)c1cc(N2CCN(c3ccccc3)CC2)c(S(=O)(=O)N2CCCCC2)cc1S(=O)(=O)N1CCCCC1 [Example 64, N-Ethyl-N′,N′-dimethyl-N-[5-(4-phenyl-piperazin-1-yl)-2,4-bis-(piperidine-1-sulfonyl)-phenyl]ethane-1,2-diamine] |  |  |  | melting point: 116 to 118 °C
CCN(CCN(C)C)c1cc(NC2CCN(Cc3ccccc3)CC2)c(S(=O)(=O)N2CCCCC2)cc1S(=O)(=O)N1CCCCC1 [Example 65] | 292% | 314% | 177% | 
CCN(CCN(C)C)c1cc(NCCCCc2ccccc2)c(S(=O)(=O)N2CCCCC2)cc1S(=O)(=O)N1CCCCC1 [Example 70] |  | 238% | 194% | 
O=S(=O)(c1cc(S(=O)(=O)N2CCCCC2)c(NCc2cccc(Cl)c2)cc1NCCN1CCCC1)N1CCCCC1 [Example 84] | 199% | 223% |  | 
CCN(CCN(C)C)c1cc(NCCc2ccc(OC)c(OC)c2)c(S(=O)(=O)NCCc2cccs2)cc1S(=O)(=O)NCCc1cccs1 [Example 92] | 213% | 233% |  | 
CCN(CCN(C)C)c1cc(N2CCC(c3ccccc3)CC2)c(S(=O)(=O)NCCc2cccs2)cc1S(=O)(=O)NCCc1cccs1 [Example 93] | 293% | 337% | 213% | 
CCN(CCN(C)C)c1cc(N2CCN(c3ccccc3)CC2)c(S(=O)(=O)NCCc2cccs2)cc1S(=O)(=O)NCCc1cccs1 [Example 94] | 194% | 321% |  | 
O=S(=O)(NCCc1cccs1)c1cc(S(=O)(=O)NCCc2cccs2)c(NCc2cccc3ccccc23)cc1NCCN1CCCC1 [Example 95] | 267% | 301% | 198% | Relative change in the plasma lipid level: LDL cholesterol [2, 3]: −44%; Relative change in the plasma lipid level: Total cholesterol [2, 3]: −45%; Relative change in the plasma lipid level: Triglycerides [2, 3]: −61%; Relative change in the plasma lipid level: LDL cholesterol [2, 4]: −49%; Relative change in the plasma lipid level: Total cholesterol [2, 4]: −50%; Relative change in the plasma lipid level: Triglycerides [2, 4]: −73%
CCN(CCN(C)C)c1cc(N2CCN(c3ccccc3)CC2)c(S(=O)(=O)NCCCOC)cc1S(=O)(=O)NCCCOC [Example 96] | 278% | 326% | 138% | 
CN(C)CCNc1cc(NCc2ccc(Cl)c(Cl)c2)c(S(=O)(=O)N2CCCCC2)cc1S(=O)(=O)N1CCCCC1 [Example 98] | 249% | 285% |  | Relative change in the plasma lipid level: LDL cholesterol [2, 3]: −26%; Relative change in the plasma lipid level: Total cholesterol [2, 3]: −23%; Relative change in the plasma lipid level: Triglycerides [2, 3]: −27%; Relative change in the plasma lipid level: LDL cholesterol [2, 4]: −44%; Relative change in the plasma lipid level: Total cholesterol [2, 4]: −46%; Relative change in the plasma lipid level: Triglycerides [2, 4]: −68%
CN(C)CCNc1cc(NCc2cccc(Cl)c2)c(S(=O)(=O)N2CCCCC2)cc1S(=O)(=O)N1CCCCC1 [Example 99] | 247% | 322% |  | 
COCCCNS(=O)(=O)c1cc(S(=O)(=O)NCCCOC)c(N2CCN(c3ccccc3)CC2)cc1NCCN1CCCC1 [Example 102] | 239% | 298% |  | 
CN1CCN(c2cc(N3CC=C(c4ccccc4)CC3)c(S(=O)(=O)N(C)c3ccccc3)cc2S(=O)(=O)N(C)c2ccccc2)CC1 [Example 108] | 191% | 249% |  | 

Source: patent US6632838B1, “Use of bissulfonamides for producing medicines for the treatment of hyperlipidemia” (Aventis Pharma Deutschland GmbH, priority 1999, dated 2003)
